Measured values published in US20120108500A1, “Compositions and Methods for Modulating Immunodeficiency Virus Transcription” (priority 2010, published 2012).

How the values were obtained:
[1] = tested on: HIV transcription in J-Lat A2 cells; experiment: cells; type: cell-based; conditions: for effect on TNFα-mediated activation of gene expression: phenelzine 100-3000 μM, DRB 0.3-10 μM
Method: Culhane et al. (2010) J Am Chem Soc 132: 3164-3176. To test the activity of this agent in HIV infection, J-Lat A2 cells were treated with increasing amounts of phenelzine or the CDK inhibitor 5,6-dichloro-1-β-D-ribofuranosyl-1H-benzimidazole (DRB), a known Tat inhibitor.
(§1) FIGS. 7A and 7B. LSD1/KDM1 is a potential drug target in HIV transcription. (A) J-Lat A2 cells were stimulated with 0.08 ng/ml of TNFα in the presence of increasing amounts of phenelzine (100, 300, 1000 or 3000 μM), DRB (0.3, 1, 3 or 10 μM) or dimethylsulfoxide (DMSO) as carrier control overnight. Numbers of GFP+ cells as well as propidium iodide (PI)-negative cells as a measure of intact cell viability were analyzed by flow cytometry. The percentage compared to DMSO-treated control cells was calculated. The average of two independent experiments is shown. (B) Purified resting primary CD4+ T cells were infected at a high multiplicity of infection (M.O.I.) with infectious HIV-NL4-3 luciferase reporter virus. Three days after infection, cells were stimulated with α-CD3 and α-CD28 antibodies in the presence of phenelzine (100, 300, or 1000 μM), DRB (1 or 10 μM) or DMSO overnight followed by analysis for luciferase activity and PI uptake.

J-Lat A2 cells = experiment: Cell viability of J-Lat A2 cells (propidium iodide-negative cells, flow cytometry); conditions: at the tested concentrations
Method: as §1

primary CD4+ T cells = tested on: primary CD4+ T cells
Method: as §1

[2] = tested on: HIV-1 NL4-3 luciferase reporter virus in primary CD4+ T cells
Method: as §1

[3] = target: synthetic Tat protein (aa 1-72), K51 monomethylated (UniProt P04608)
[4] = tested on: histone H3 dimethylated at lysine 4 (in purified total cellular histones)
[5] = target: C-terminal FLAG tagged Tat protein (Tat/FLAG), expressed in cells (HIV) (UniProt P04608); experiment: cell-based or functional assay

## OC[C@H]1O[C@@H](n2cnc3cc(Cl)c(Cl)cc32)[C@H](O)[C@@H]1O [DRB, 5,6-dichloro-1-β-D-ribofuranosyl-1H-benzimidazole]
[1]; J-Lat A2 cells
  effect on TNFα-mediated activation of gene expression: prevented TNFα-mediated activation of gene expression in a dose-dependent manner
J-Lat A2 cells
  cell toxicity (PI-negative cells): No cell toxicity was observed

## NNCCc1ccccc1 (racemic) [phenelzine, (±)-2-phenylethylhydrazine]
[1]; Human immunodeficiency virus 1, J-Lat A2, read-out: IC50, prevention of TNFα-mediated activation of gene expression (GFP+ cells)
  IC50: 300 µM
[1]; J-Lat A2 cells, TNFα-stimulated
  concentrations needed relative to DRB: ~150 fold
[1]; J-Lat A2 cells
  effect on TNFα-mediated activation of gene expression: prevented TNFα-mediated activation of gene expression in a dose-dependent manner
Primary CD4+ T cells
  cell viability (PI uptake): slight decrease in cell viability was observed in one donor
[2]; nonactivated primary T cells
  basal expression of luciferase: suppressed the basal expression of luciferase in nonactivated cells
[2]; primary CD4+ T cells of two donors, α-CD3/α-CD28 stimulation, phenelzine 100-1000 μM
  activation of luciferase expression: successfully suppressed
[2]; primary T cells
  suppression of HIV gene expression compared with DRB: more efficient in suppressing HIV gene expression than DRB
J-Lat A2 cells
  cell toxicity (PI-negative cells): No cell toxicity was observed

## recombinant LSD1/KDM1 (His-tagged, prokaryotic expression)
[3]
  in vitro demethylation, western blot with α-Me1K51 Tat antibodies: Recombinant LSD1/KDM1 demethylated synthetic monomethylated Tat in a dose-dependent manner
[4]
  in vitro demethylation of purified histones, western blot with α-Me2H3K4: LSD1/KDM1 also demethylated its cognate substrate, dimethyl lysine 4 in histone H3, as expected

## endogenous LSD1/KDM1 (lysine-specific demethylase-1) in cells (from UniProt O60341 1-852) (enzyme)
[5]
  decrease in Tat transactivation of the HIV LTR luciferase reporter in HeLa cells after LSD1/KDM1 siRNA: 50%
